Key:
[1] = tested on: ARH-77; assay: cells; format: functional, cell-based; conditions: Homo sapiens;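 further: growth inhibition of ARH-77 cells, read out by a cell viability assay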
Description: SANGER: Inhibition of human ARH-77 cell growth in a cell viability assay.

[2] = tested on: GDM-1; assay: cells; format: functional, cell-based; conditions: Homo sapiens;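 further: cell viability readout used to measure growth inhibition of human GDM-1 cells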
Description: SANGER: Inhibition of human GDM-1 cell growth in a cell viability assay.

[3] = tested on: KARPAS-422; assay: cells; format: functional, cell-based; conditions: Homo sapiens
Description: SANGER: Inhibition of human KARPAS-422 cell growth in a cell viability assay.

[4] = tested on: SUP-T1; assay: cells; format: functional, cell-based; conditions: Homo sapiens;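 further: growth inhibition of human SUP-T1 cells, read out as cell viability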
Description: SANGER: Inhibition of human SUP-T1 cell growth in a cell viability assay.

[5] = tested on: D-336MG; assay: cells; format: functional, cell-based; conditions: Homo sapiens
Description: SANGER: Inhibition of human D-336MG cell growth in a cell viability assay.

[6] = tested on: OPM-2; assay: cells; format: functional, cell-based; conditions: Homo sapiens;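 further: growth of OPM-2 cells measured with a viability assay, IC50 for suppression of proliferation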
Description: SANGER: Inhibition of human OPM-2 cell growth in a cell viability assay.

[7] = tested on: BL-70; assay: SANGER: Inhibition of human BL-70 cell growth in a cell viability assay.; format: functional, cell-based
[8] = tested on: SR; assay: cells; format: functional, cell-based; conditions: Homo sapiens
Description: SANGER: Inhibition of human SR cell growth in a cell viability assay.

[9] = tested on: NALM-6; assay: cells; format: functional, cell-based; conditions: Homo sapiens;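 further: growth inhibition of NALM-6 cells, read out with a cell viability assay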
Description: SANGER: Inhibition of human NALM-6 cell growth in a cell viability assay.

[10] = tested on: NCCIT; assay: SANGER: Inhibition of human NCCIT cell growth in a cell viability assay.; format: functional, cell-based
[11] = tested on: WSU-NHL; assay: cells; format: functional, cell-based; conditions: Homo sapiens;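 further: growth inhibition of human WSU-NHL cells, read out with a cell viability assay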
Description: SANGER: Inhibition of human WSU-NHL cell growth in a cell viability assay.

[12] = tested on: NCI-H460; assay: cells; format: functional, cell-based; conditions: Homo sapiens;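 further: cell viability assay scoring growth inhibition of human NCI-H460 cells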
Description: SANGER: Inhibition of human NCI-H460 cell growth in a cell viability assay.

[13] = tested on: HT-1376; assay: cells; format: functional, cell-based; conditions: Homo sapiens
Description: SANGER: Inhibition of human HT-1376 cell growth in a cell viability assay.

[14] = tested on: FTC-133; assay: cells; format: functional, cell-based; conditions: Homo sapiens
[15] = tested on: SK-MEL3; assay: cells; format: functional, cell-based, SK-MEL-3; conditions: Homo sapiens;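 further: growth inhibition of human SK-MEL-3 cells, read out with a cell viability assay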
Description: SANGER: Inhibition of human SK-MEL-3 cell growth in a cell viability assay.

[16] = tested on: HCC70; assay: cells; format: functional, cell-based; conditions: Homo sapiens;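 further: cell viability assay measuring how strongly the compound suppresses proliferation of HCC70 cells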
Description: SANGER: Inhibition of human HCC70 cell growth in a cell viability assay.

[17] = tested on: BHT-101; assay: cells; format: functional, cell-based; conditions: Homo sapiens
Description: SANGER: Inhibition of human BHT-101 cell growth in a cell viability assay.

[18] = tested on: CAPAN-1; assay: cells; format: functional, cell-based; conditions: Homo sapiens;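 further: growth suppression of CAPAN-1 cells, read out by a cell viability assay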
Description: SANGER: Inhibition of human CAPAN-1 cell growth in a cell viability assay.

[19] = tested on: 23132-87; assay: cells; format: functional, cell-based; conditions: Homo sapiens
Description: SANGER: Inhibition of human 23132-87 cell growth in a cell viability assay.

[20] = tested on: A 172; assay: cells; format: functional, cell-based; conditions: Homo sapiens;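 further: growth inhibition of A172 cells, measured with a cell viability readout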
Description: SANGER: Inhibition of human A172 cell growth in a cell viability assay.

[21] = tested on: CAL-85-1; assay: cells; format: functional, cell-based; conditions: Homo sapiens;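 further: growth inhibition of human CAL-85-1 cells, read out with a cell viability assay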
Description: SANGER: Inhibition of human CAL-85-1 cell growth in a cell viability assay.

[22] = tested on: IGROV-1; assay: cells; format: functional, cell-based; conditions: Homo sapiens;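 further: reduction of IGROV-1 cell growth, read out with a viability assay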
Description: SANGER: Inhibition of human IGROV-1 cell growth in a cell viability assay.

[23] = tested on: SNU-449; assay: cells; format: functional, cell-based; conditions: Homo sapiens
Description: SANGER: Inhibition of human SNU-449 cell growth in a cell viability assay.

[24] = tested on: CAL-54; assay: cells; format: functional, cell-based; conditions: Homo sapiens;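 further: growth inhibition of CAL-54 cells, read out by a viability measurement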
Description: SANGER: Inhibition of human CAL-54 cell growth in a cell viability assay.

[25] = tested on: DU-145; assay: cells; format: functional, cell-based; conditions: Homo sapiens
Description: SANGER: Inhibition of human DU-145 cell growth in a cell viability assay.

[26] = tested on: C3A; assay: cells; format: functional, cell-based; conditions: Homo sapiens;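 further: growth inhibition of C3A human cells, quantified with a cell viability readout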
Description: SANGER: Inhibition of human C3A cell growth in a cell viability assay.

[27] = tested on: CAMA-1; assay: cells; format: functional, cell-based; conditions: Homo sapiens;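 further: growth inhibition of CAMA-1 cells, read out with a cell viability assay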
Description: SANGER: Inhibition of human CAMA-1 cell growth in a cell viability assay.

[28] = tested on: G-402; assay: cells; format: functional, cell-based; conditions: Homo sapiens
Description: SANGER: Inhibition of human G-402 cell growth in a cell viability assay.

[29] = tested on: NCI-H2087; assay: cells; format: functional, cell-based; conditions: Homo sapiens;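 further: growth inhibition determined with a cell viability readout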
Description: SANGER: Inhibition of human NCI-H2087 cell growth in a cell viability assay.

[30] = tested on: HuP-T3; assay: cells; format: functional, cell-based; conditions: Homo sapiens;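 further: HuP-T3 cell growth inhibition, read out with a cell viability assay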
Description: SANGER: Inhibition of human HuP-T3 cell growth in a cell viability assay.

[31] = tested on: HN; assay: cells; format: functional, cell-based; conditions: Homo sapiens
Description: SANGER: Inhibition of human HN cell growth in a cell viability assay.

[32] = tested on: VMRC-RCZ; assay: cells; format: functional, cell-based; conditions: Homo sapiens
Description: SANGER: Inhibition of human VMRC-RCZ cell growth in a cell viability assay.

[33] = tested on: T-24; assay: cells; format: functional, cell-based; conditions: Homo sapiens;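 further: growth inhibition of T-24 cells, read out with a cell viability assay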
Description: SANGER: Inhibition of human T-24 cell growth in a cell viability assay.

[34] = tested on: SAS; assay: cells; format: functional, cell-based; conditions: Homo sapiens;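 further: growth inhibition of SAS cells, read out with a cell viability assay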
Description: SANGER: Inhibition of human SAS cell growth in a cell viability assay.

[35] = tested on: GMS-10; assay: cells; format: functional, cell-based; conditions: Homo sapiens;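 further: growth inhibition of GMS-10 cells, read out as cell viability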
Description: SANGER: Inhibition of human GMS-10 cell growth in a cell viability assay.

[36] = tested on: MHH-ES-1; assay: cells; format: functional, cell-based; conditions: Homo sapiens
Description: SANGER: Inhibition of human MHH-ES-1 cell growth in a cell viability assay.

[37] = tested on: 639-V; assay: cells; format: functional, cell-based; conditions: Homo sapiens;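 further: growth inhibition of 639-V cells, read out with a cell viability assay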
Description: SANGER: Inhibition of human 639-V cell growth in a cell viability assay.

[38] = tested on: HCT-116; assay: cells; format: functional, cell-based; conditions: Homo sapiens
Description: SANGER: Inhibition of human HCT-116 cell growth in a cell viability assay.

[39] = tested on: TYK-nu; assay: cells; format: functional, cell-based; conditions: Homo sapiens;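 further: growth inhibition of human TYK-nu cells, read out by a cell viability assay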
Description: SANGER: Inhibition of human TYK-nu cell growth in a cell viability assay.

[40] = tested on: NCI-H441; assay: cells; format: functional, cell-based; conditions: Homo sapiens;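 further: growth inhibition of NCI-H441 cells, read out with a cell viability assay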
Description: SANGER: Inhibition of human NCI-H441 cell growth in a cell viability assay.

[41] = tested on: MDA-MB-415; assay: cells; format: functional, cell-based; conditions: Homo sapiens
[42] = tested on: HSC-3; assay: cells; format: functional, cell-based; conditions: Homo sapiens
Description: SANGER: Inhibition of human HSC-3 cell growth in a cell viability assay.

[43] = tested on: U2OS; assay: cells; format: functional, cell-based, U-2-OS; conditions: Homo sapiens;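 further: growth inhibition of human U-2-OS cells, determined with a cell viability assay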
Description: SANGER: Inhibition of human U-2-OS cell growth in a cell viability assay.

[44] = tested on: HEC-1; assay: cells; format: functional, cell-based; conditions: Homo sapiens;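 further: growth inhibition of the cell line, read out with a cell viability assay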
Description: SANGER: Inhibition of human HEC-1 cell growth in a cell viability assay.

[45] = tested on: MEL-HO; assay: cells; format: functional, cell-based; conditions: Homo sapiens
Description: SANGER: Inhibition of human MEL-HO cell growth in a cell viability assay.

[46] = tested on: HuCCT-1; assay: cells; format: functional, cell-based, HuCCT1; conditions: Homo sapiens;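 further: growth inhibition of HuCCT-1 cells, read out by a cell viability assay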
Description: SANGER: Inhibition of human HuCCT1 cell growth in a cell viability assay.

[47] = tested on: HT-29; assay: cells; format: functional, cell-based; conditions: Homo sapiens;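 further: growth inhibition of human HT-29 cells, read out by a cell viability assay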
Description: SANGER: Inhibition of human HT-29 cell growth in a cell viability assay.

[48] = tested on: SW780; assay: cells; format: functional, cell-based; conditions: Homo sapiens;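 further: growth inhibition of the cells, read out with a cell viability assay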
Description: SANGER: Inhibition of human SW780 cell growth in a cell viability assay.

[49] = tested on: Daoy; assay: cells; format: functional, cell-based; conditions: Homo sapiens;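 further: daoy cell growth inhibition, read out as cell viability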
Description: SANGER: Inhibition of human Daoy cell growth in a cell viability assay.

[50] = tested on: COLO-678; assay: cells; format: functional, cell-based; conditions: Homo sapiens
Description: SANGER: Inhibition of human COLO-678 cell growth in a cell viability assay.

[51] = tested on: UO-31; assay: cells; format: functional, cell-based; conditions: Homo sapiens
Description: SANGER: Inhibition of human U031 cell growth in a cell viability assay.

[52] = tested on: SCC-9; assay: cells; format: functional, cell-based; conditions: Homo sapiens;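 further: Read-out is a cell viability assay, with values giving inhibition of cell growth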
Description: SANGER: Inhibition of human SCC-9 cell growth in a cell viability assay.

[53] = tested on: DK-MG; assay: cells; format: functional, cell-based; conditions: Homo sapiens;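 further: growth inhibition of DK-MG cells, read out with a cell viability assay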
Description: SANGER: Inhibition of human DK-MG cell growth in a cell viability assay.

[54] = tested on: HTC-C3; assay: cells; format: functional, cell-based; conditions: Homo sapiens;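 further: inhibition of cell growth, read out with a cell viability assay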
Description: SANGER: Inhibition of human HTC-C3 cell growth in a cell viability assay.

[55] = tested on: CHP-212; assay: cells; format: functional, cell-based; conditions: Homo sapiens
Description: SANGER: Inhibition of human CHP-212 cell growth in a cell viability assay.

[56] = tested on: BFTC-905; assay: cells; format: functional, cell-based; conditions: Homo sapiens
Description: SANGER: Inhibition of human BFTC-905 cell growth in a cell viability assay.

[57] = tested on: RPMI-7951; assay: cells; format: functional, cell-based; conditions: Homo sapiens
Description: SANGER: Inhibition of human RPMI-7951 cell growth in a cell viability assay.

[58] = tested on: GP5d; assay: cells; format: functional, cell-based; conditions: Homo sapiens;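 further: growth inhibition of human GP5d cells, read out with a cell viability assay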
Description: SANGER: Inhibition of human GP5d cell growth in a cell viability assay.

[59] = tested on: Detroit 562; assay: cells; format: functional, cell-based; conditions: Homo sapiens;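 further: growth inhibition of human Detroit 562 cells, read out by a cell viability assay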
Description: SANGER: Inhibition of human Detroit562 cell growth in a cell viability assay.

[60] = tested on: Panc1005; assay: cells; format: functional, cell-based; conditions: Homo sapiens;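 further: growth inhibition of human PANC-10-05 cells, measured by a cell viability assay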
Description: SANGER: Inhibition of human PANC-10-05 cell growth in a cell viability assay.

[61] = tested on: CAL-33; assay: cells; format: functional, cell-based; conditions: Homo sapiens;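 further: growth inhibition of CAL-33 cells, read out with a cell viability assay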
Description: SANGER: Inhibition of human CAL-33 cell growth in a cell viability assay.

[62] = tested on: MeWo; assay: cells; format: functional, cell-based; conditions: Homo sapiens;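 further: growth inhibition of MeWo cells, determined by a cell viability readout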
Description: SANGER: Inhibition of human Mewo cell growth in a cell viability assay.

Structure (SMILES): Cc1nc(Nc2ncc(C(=O)Nc3c(C)cccc3Cl)s2)cc(N2CCN(CCO)CC2)n1 [DASATINIB]
- IC50 [1]: > 1.28 µM
- IC50 [2]: > 1.28 µM
- IC50 [3]: 0.34 µM
- IC50 [4]: > 1.28 µM
- IC50 [5]: 0.0063 µM
- IC50 [6]: > 1.28 µM
- IC50 [7]: < 0.005 µM
- IC50 [8]: > 1.28 µM
- IC50 [9]: 0.193 µM
- IC50 [10]: > 1.28 µM
- IC50 [11]: > 1.28 µM

Structure (SMILES): Fc1cc(-c2cc[nH]/c(=N/c3ccc(-n4cnc(N5CCOCC5)n4)cc3)n2)cc(N2CCOCC2)c1
- IC50 [12]: 0.337 µM
- IC50 [13]: 1.46 µM
- IC50 [14]: > 5.12 µM
- IC50 [15]: 0.877 µM
- IC50 [1]: 0.574 µM
- IC50 [16]: 0.35 µM
- IC50 [17]: 0.667 µM
- IC50 [2]: 0.204 µM
- IC50 [18]: 0.394 µM
- IC50 [19]: 0.623 µM
- IC50 [20]: 0.669 µM
- IC50 [21]: 0.881 µM
- IC50 [22]: 0.0977 µM
- IC50 [23]: 0.522 µM
- IC50 [24]: 1.88 µM
- IC50 [25]: 0.48 µM
- IC50 [26]: 0.566 µM
- IC50 [27]: > 5.12 µM
- IC50 [3]: 0.406 µM
- IC50 [28]: 0.258 µM
- IC50 [29]: 0.341 µM
- IC50 [30]: > 5.12 µM
- IC50 [31]: 4.24 µM
- IC50 [32]: 0.999 µM
- IC50 [4]: 0.427 µM
- IC50 [5]: 1.01 µM
- IC50 [33]: 2.87 µM
- IC50 [34]: 1.94 µM
- IC50 [35]: 2.84 µM
- IC50 [36]: 0.274 µM
- IC50 [37]: 0.22 µM
- IC50 [38]: 0.164 µM
- IC50 [6]: 0.514 µM
- IC50 [39]: 2.62 µM
- IC50 [40]: > 5.12 µM
- IC50 [41]: 1.33 µM
- IC50 [42]: 0.713 µM
- IC50 [43]: > 5.12 µM
- IC50 [44]: 2.15 µM
- IC50 [7]: 0.252 µM
- IC50 [45]: 0.19 µM
- IC50 [46]: 0.554 µM
- IC50 [47]: 0.358 µM
- IC50 [48]: 1.63 µM
- IC50 [8]: 0.122 µM
- IC50 [9]: 0.214 µM
- IC50 [49]: 0.865 µM
- IC50 [50]: 3.65 µM
- IC50 [51]: 0.519 µM
- IC50 [10]: 0.398 µM
- IC50 [52]: 0.218 µM
- IC50 [53]: > 5.12 µM
- IC50 [54]: 1.24 µM
- IC50 [55]: 0.286 µM
- IC50 [56]: 0.141 µM
- IC50 [57]: 0.721 µM
- IC50 [58]: 0.514 µM
- IC50 [59]: 0.321 µM
- IC50 [60]: 0.46 µM
- IC50 [11]: 0.587 µM
- IC50 [61]: 0.826 µM
- IC50 [62]: 0.199 µM

Structure (SMILES): Cc1n[nH]c2ccc(-c3cncc(OC[C@@H](N)Cc4c[nH]c5ccccc45)c3)cc12 [A-443654]
- IC50 [1]: 0.298 µM
- IC50 [2]: > 1.02 µM
- IC50 [3]: 0.294 µM
- IC50 [4]: > 1.02 µM
- IC50 [5]: 0.421 µM
- IC50 [6]: 0.314 µM
- IC50 [7]: 0.057 µM
- IC50 [8]: 0.184 µM
- IC50 [9]: 0.128 µM
- IC50 [10]: 0.234 µM
- IC50 [11]: > 1.02 µM
